One assay addresses T1, human TLR7 (Homo sapiens, UniProt Q9NYK1).
T1 construct: host or cells: HEK-Blue cells
T1 sequence (Q9NYK1 27-1049): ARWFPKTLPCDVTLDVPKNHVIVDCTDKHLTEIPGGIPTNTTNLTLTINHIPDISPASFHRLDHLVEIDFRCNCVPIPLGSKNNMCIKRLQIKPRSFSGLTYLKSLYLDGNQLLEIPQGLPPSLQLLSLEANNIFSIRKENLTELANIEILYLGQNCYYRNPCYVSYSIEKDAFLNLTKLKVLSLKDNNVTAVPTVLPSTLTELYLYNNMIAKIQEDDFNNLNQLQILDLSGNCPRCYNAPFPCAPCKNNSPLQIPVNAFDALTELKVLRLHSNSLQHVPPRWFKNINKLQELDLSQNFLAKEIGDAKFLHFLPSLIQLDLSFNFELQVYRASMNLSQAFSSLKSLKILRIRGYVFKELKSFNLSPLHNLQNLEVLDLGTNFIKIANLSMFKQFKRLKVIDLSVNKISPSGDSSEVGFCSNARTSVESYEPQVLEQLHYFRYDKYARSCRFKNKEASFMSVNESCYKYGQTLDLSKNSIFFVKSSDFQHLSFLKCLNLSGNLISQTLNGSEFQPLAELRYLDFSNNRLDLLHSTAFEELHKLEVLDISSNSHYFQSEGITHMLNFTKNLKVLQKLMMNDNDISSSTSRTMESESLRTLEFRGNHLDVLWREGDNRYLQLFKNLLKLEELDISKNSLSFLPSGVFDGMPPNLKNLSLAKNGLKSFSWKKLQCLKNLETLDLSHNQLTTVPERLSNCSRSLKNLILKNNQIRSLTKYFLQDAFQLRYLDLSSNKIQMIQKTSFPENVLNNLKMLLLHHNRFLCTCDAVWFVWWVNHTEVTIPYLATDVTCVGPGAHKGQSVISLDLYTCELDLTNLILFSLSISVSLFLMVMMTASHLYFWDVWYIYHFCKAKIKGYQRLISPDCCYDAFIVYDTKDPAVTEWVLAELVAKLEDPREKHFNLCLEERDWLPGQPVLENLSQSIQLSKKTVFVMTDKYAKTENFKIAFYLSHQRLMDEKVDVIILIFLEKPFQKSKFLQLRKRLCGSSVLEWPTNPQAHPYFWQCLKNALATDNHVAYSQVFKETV
Put plainly: TLR7 inhibition reporter assay (HEK-Blue cells, SEAP reporter). The following applies: HEK-Blue cells overexpressing human TLR7, stimulated with gardiquimod 7.5 μM, 22 hour incubation. Type of assay: cell-based. Here is the method: (§1) TLR7/8/9 Inhibition Reporter Assays
(§2) HEK-Blue™-cells (Invivogen) overexpressing human TLR7, TLR8 or TLR9 receptors were used for screening inhibitors of these receptors using an inducible SEAP (secreted embryonic alkaline phosphatase) reporter gene under the control of the IFN-β minimal promoter fused to five NF-κB and AP-1-binding sites. Briefly, cells are seeded into Greiner 384 well plates (15000 cells per well for TLR7, 20,000 for TLR8 and 25,000 for TLR9) and then treated with test compounds in DMSO to yield a final dose response concentration range of 0.05 nM-50 μM. After a 30 minute compound pre-treatment at room temperature, the cells are then stimulated with a TLR7 ligand (gardiquimod at a final concentration of 7.5 μM), TLR8 ligand (R848 at a final concentration of 15.9 μM) or TLR9 ligand (ODN2006 at a final concentration of 5 nM) to activate NF-κB and AP-1 which induce the production of SEAP. After a 22 hour incubation at 37° C., 5% CO2, SEAP levels are determined with the addition of HEK-Blue™ Detection reagent (Invivogen), a cell culture medium that allows for detection of SEAP, according to manufacturer's specifications. The percent inhibition is determined as the % reduction in the HEK-Blue signal present in wells treated with agonist plus DMSO alone compared to wells treated with a known inhibitor.

The target in a further assay is T2, human TLR8 (Homo sapiens, UniProt Q9NR97).
T2 construct: host or cells: HEK-Blue cells
T2 sequence (Q9NR97 27-1041): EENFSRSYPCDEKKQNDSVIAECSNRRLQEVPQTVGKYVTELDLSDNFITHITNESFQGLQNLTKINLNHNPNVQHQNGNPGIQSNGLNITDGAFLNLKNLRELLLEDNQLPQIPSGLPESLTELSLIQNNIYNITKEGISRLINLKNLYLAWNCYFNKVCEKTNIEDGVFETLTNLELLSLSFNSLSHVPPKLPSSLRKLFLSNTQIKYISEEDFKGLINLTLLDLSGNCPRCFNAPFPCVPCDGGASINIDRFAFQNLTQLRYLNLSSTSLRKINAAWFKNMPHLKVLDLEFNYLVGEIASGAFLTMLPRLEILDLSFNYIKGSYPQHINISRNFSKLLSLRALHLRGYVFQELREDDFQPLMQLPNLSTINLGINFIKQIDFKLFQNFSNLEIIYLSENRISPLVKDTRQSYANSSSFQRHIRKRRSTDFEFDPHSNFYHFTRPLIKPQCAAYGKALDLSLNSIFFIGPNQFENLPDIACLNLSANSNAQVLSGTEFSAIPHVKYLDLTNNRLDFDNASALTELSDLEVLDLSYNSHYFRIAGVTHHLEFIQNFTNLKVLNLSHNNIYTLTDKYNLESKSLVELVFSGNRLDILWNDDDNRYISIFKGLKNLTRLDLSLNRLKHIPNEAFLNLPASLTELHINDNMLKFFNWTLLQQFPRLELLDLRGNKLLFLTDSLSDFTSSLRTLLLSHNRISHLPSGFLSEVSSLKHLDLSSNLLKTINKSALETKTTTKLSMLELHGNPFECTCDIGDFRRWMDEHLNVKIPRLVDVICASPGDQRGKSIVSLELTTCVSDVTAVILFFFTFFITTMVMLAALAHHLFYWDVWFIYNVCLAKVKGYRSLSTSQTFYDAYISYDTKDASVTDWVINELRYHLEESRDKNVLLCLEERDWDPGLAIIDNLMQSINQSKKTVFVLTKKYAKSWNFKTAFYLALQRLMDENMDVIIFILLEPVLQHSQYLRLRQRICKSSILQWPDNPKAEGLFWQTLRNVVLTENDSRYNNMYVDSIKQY
Put plainly: TLR8 inhibition reporter assay (HEK-Blue cells, SEAP reporter). Type of assay: cell-based. The following applies: HEK-Blue cells overexpressing human TLR8, stimulated with R848 15.9 μM, 22 hour incubation. Here is the method:
as §1, §2

pIC50: −log10 of the molar value.

On to `COc1ccc(-c2c(C)[nH]c3cnc(C4CCN(C(=O)CN(C)C)CC4)cc23)cc1OC` [Example 22, 1-(4-(3-(3,4-dimethoxyphenyl)-2-methyl-1H-pyrrolo[2,3-c]pyridin-5-yl)piperidin-1-yl)-2-(dimethylamino)ethan-1-one], for which the pIC50 against human TLR7 was 5.01; against human TLR8, under 4.30.
Taken in the same sequence, the figures for `COc1ccc(-c2c(C)[nH]c3cnc(C4CCN(C(=O)CCN5CCCC5)CC4)cc23)cc1OC` [Example 23, 1-(4-(3-(3,4-dimethoxyphenyl)-2-methyl-1H-pyrrolo[2,3-c]pyridin-5-yl)piperidin-1-yl)-3-(pyrrolidin-1-yl)propan-1-one] were under 4.30 and under 4.30.
The matching figures for `COc1ccc(-c2cc3cnc(-c4ccc(N5CCN(C(C)C)CC5)cc4)cc3n2C)cc1OC` [Example 24, 2-(3,4-dimethoxyphenyl)-6-(4-(4-isopropylpiperazin-1-yl)phenyl)-1-methyl-1H-pyrrolo[3,2-c]pyridine]: 5.49 and 5.42.
As to `COc1ccc(-c2cc3cnc(C4CCN(C(=O)CN5CCCCC5)CC4)cc3n2C)cc1OC` [Example 25, 1-(4-(2-(3,4-dimethoxyphenyl)-1-methyl-1H-pyrrolo[3,2-c]pyridin-6-yl)piperidin-1-yl)-2-(piperidin-1-yl)ethan-1-one], the pIC50 at human TLR7 is 5.35; at human TLR8, under 4.30.
`COc1ccc(-c2cc3cnc(C4CCN(C5CCN(C(=O)c6ccccc6)CC5)CC4)cc3n2C)cc1OC` [Example 26, (4-(2-(3,4-dimethoxyphenyl)-1-methyl-1H-pyrrolo[3,2-c]pyridin-6-yl)-[1,4′-bipiperidin]-1′-yl)(phenyl)methanone]: the figures for the pIC50 on human TLR7 and against human TLR8 were 5.14 and 5.92, respectively.
The matching figures for `COc1ccc(-c2cc3cnc(-c4ccc(N5CCN(C)CC5)cc4)cc3n2C)cc1OC` [Example 27, 2-(3,4-dimethoxyphenyl)-1-methyl-6-(4-(4-methylpiperazin-1-yl)phenyl)-1H-pyrrolo[3,2-c]pyridine]: 5.59 and 5.82.
For `COc1ccc(-c2cc3cnc(C4CCN(Cc5ccc(C(F)(F)F)nc5)CC4)cc3n2C)cc1OC` [Example 28, 2-(3,4-dimethoxyphenyl)-1-methyl-6-(1-((6-(trifluoromethyl)pyridin-3-yl)methyl)piperidin-4-yl)-1H-pyrrolo[3,2-c]pyridine], the negative-log IC50 (pIC50) at human TLR7 was under 4.30; at human TLR8 it was 4.69.
Regarding `COc1ccc(-c2cc3cnc(-c4ccc(N5CCN(C(=O)c6ccccc6)CC5)cc4)cc3n2C)cc1OC` [Example 29, (4-(4-(2-(3,4-dimethoxyphenyl)-1-methyl-1H-pyrrolo[3,2-c]pyridin-6-yl)phenyl)piperazin-1-yl)(phenyl)methanone], the values for the pIC50 at human TLR7 and against human TLR8 were 4.84 and 5.09, respectively.
For `COc1ccc(-c2cc3cnc(-c4ccc(N5CCN(C(C)C)CC5)nc4)cc3n2C)cc1OC` [Example 31, 2-(3,4-dimethoxyphenyl)-6-(6-(4-isopropylpiperazin-1-yl)pyridin-3-yl)-1-methyl-1H-pyrrolo[3,2-c]pyridine], the negative-log IC50 (pIC50) at human TLR7 was 5.82; at human TLR8 it was 5.77.
Taken in the same sequence, the figures for `COc1ccc(-c2c(C)n(C)c3cnc(-c4ccc(N5CCN(C(C)C)CC5)cc4)cc23)cc1OC` [Example 32, 3-(3,4-dimethoxyphenyl)-5-(4-(4-isopropylpiperazin-1-yl)phenyl)-1,2-dimethyl-1H-pyrrolo[2,3-c]pyridine] were 5.85 and under 4.30.
Taken in the same sequence, the figures for `COc1ccc(-c2c(C)n(C)c3cnc(-c4ccc(N5CCN(CCC(C)(C)O)CC5)cc4)cc23)cc1OC` [Example 33, 4-(4-(4-(3-(3,4-dimethoxyphenyl)-1,2-dimethyl-1H-pyrrolo[2,3-c]pyridin-5-yl)phenyl)piperazin-1-yl)-2-methylbutan-2-ol] were 5.49 and under 4.30.
As to `Cc1nc(-c2ccc(N3CCN(CC(C)C)CC3)cc2)cc2c1cc(-c1ccc(S(C)(=O)=O)cc1)n2C` [Example 34, 6-(4-(4-isobutylpiperazin-1-yl)phenyl)-1,4-dimethyl-2-(4-(methylsulfonyl)phenyl)-1H-pyrrolo[3,2-c]pyridine], the pIC50 at human TLR7 was 5.66; against human TLR8, under 4.30.
The matching figures for `Cc1nc(-c2ccc(N3CCN(C4CCOCC4)CC3)cc2)cc2c1cc(-c1ccc(S(C)(=O)=O)cc1)n2C` [Example 35, 1,4-dimethyl-2-(4-(methylsulfonyl)phenyl)-6-(4-(4-(tetrahydro-2H-pyran-4-yl)piperazin-1-yl)phenyl)-1H-pyrrolo[3,2-c]pyridine]: 4.77 and under 4.60.
Taken in the same sequence, the figures for `Cc1nc(-c2ccc(N3CCN(CCCO)CC3)cc2)cc2c1cc(-c1ccc(S(C)(=O)=O)cc1)n2C` [Example 36, 3-(4-(4-(1,4-dimethyl-2-(4-(methylsulfonyl)phenyl)-1H-pyrrolo[3,2-c]pyridin-6-yl)phenyl)piperazin-1-yl)propan-1-ol] were 5.33 and under 4.60.
The matching figures for `Cc1nc(-c2ccc(N3CCN(C4CCOC4)CC3)cc2)cc2c1cc(-c1ccc(S(C)(=O)=O)cc1)n2C` (stereo not shown) [Example 37, 1,4-dimethyl-2-(4-(methylsulfonyl)phenyl)-6-(4-(4-(tetrahydrofuran-3-yl)piperazin-1-yl)phenyl)-1H-pyrrolo[3,2-c]pyridine]: 4.93 and under 4.60.
In the case of `COCCN1CCN(c2ccc(-c3cc4c(cc(-c5ccc(S(C)(=O)=O)cc5)n4C)c(C)n3)cc2)CC1` [Example 38, 6-(4-(4-(2-methoxyethyl)piperazin-1-yl)phenyl)-1,4-dimethyl-2-(4-(methylsulfonyl)phenyl)-1H-pyrrolo[3,2-c]pyridine], the negative logarithm of the IC50 (pIC50) against human TLR7 was 5.59; at human TLR8, 4.93.
Taken in the same sequence, the figures for `Cc1nc(-c2ccc(C3CCN(CCCO)CC3)cc2)cc2c1cc(-c1ccc(S(C)(=O)=O)cc1)n2C` [Example 41, 3-(4-(4-(1,4-Dimethyl-2-(4-(methylsulfonyl)phenyl)-1H-pyrrolo[3,2-c]pyridin-6-yl)phenyl)piperidin-1-yl)propan-1-ol] were 5.31 and under 4.78.

The values are drawn from patent publication US12590091B2, “1H-pyrrolo[3,2-C]pyridine and 1H-pyrrolo[2,3-C]pyridine derivatives as TLR9 inhibitors for the treatment of fibrosis” (BRISTOL-MYERS SQUIBB COMPANY, priority 2020, dated 2026).
